Data: ChEMBL document CHEMBL5236596, “Discovery and Optimization of N-Acyl-6-sulfonamide-tetrahydroquinoline Derivatives as Novel Non-Steroidal Selective Glucocorticoid Receptor Modulators” (J Med Chem, 2022)

Key:
[1] = target: T1, Glucocorticoid receptor (Homo sapiens, UniProt P04150); test: Binding affinity to glucocorticoid receptor (unknown origin) by Lanthascreen TR-FRET competition binding assay
T1 sequence (P04150 whole entry): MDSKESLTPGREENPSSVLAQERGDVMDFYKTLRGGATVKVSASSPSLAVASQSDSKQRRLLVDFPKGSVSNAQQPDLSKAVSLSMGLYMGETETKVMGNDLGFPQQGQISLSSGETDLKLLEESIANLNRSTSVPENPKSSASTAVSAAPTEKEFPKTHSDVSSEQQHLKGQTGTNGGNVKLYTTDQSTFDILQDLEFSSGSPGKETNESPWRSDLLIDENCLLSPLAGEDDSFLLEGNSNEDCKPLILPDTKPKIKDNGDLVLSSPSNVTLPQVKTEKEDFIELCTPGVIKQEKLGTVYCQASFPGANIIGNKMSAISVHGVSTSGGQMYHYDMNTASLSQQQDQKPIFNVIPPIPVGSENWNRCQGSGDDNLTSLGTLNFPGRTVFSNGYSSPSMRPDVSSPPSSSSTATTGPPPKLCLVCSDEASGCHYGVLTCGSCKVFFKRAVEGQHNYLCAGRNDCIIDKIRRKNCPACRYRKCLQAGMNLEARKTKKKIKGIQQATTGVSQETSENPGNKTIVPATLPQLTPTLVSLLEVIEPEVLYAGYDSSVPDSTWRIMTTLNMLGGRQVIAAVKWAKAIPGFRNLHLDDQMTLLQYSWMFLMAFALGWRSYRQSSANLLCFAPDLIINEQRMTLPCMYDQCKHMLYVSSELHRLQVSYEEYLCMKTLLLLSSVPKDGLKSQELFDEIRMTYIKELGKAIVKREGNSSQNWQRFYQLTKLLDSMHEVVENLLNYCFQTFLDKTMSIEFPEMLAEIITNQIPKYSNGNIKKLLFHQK

[2] = target: T1, Glucocorticoid receptor; test: Modulation of glucocorticoid receptor (unknown origin) transfected in human HeLa cells assessed as transrepression by measuring inhibition of TNF-alpha induced NF-kappaB signalling incubated for 18 hrs by dual-luciferase reporter based assay; type: cell-based
[3] = target: T1, Glucocorticoid receptor; test: Modulation of glucocorticoid receptor (unknown origin) transfected in human HeLa cells assessed as transrepression by measuring inhibition of PMA-induced AP-1 signalling incubated for 18 hrs by dual-luciferase reporter based assay; type: cell-based

An IC50 [1] of 19.7 µM, an IC50 [2] of 2.45 µM and an IC50 [3] of 4.12 µM were found for O=C(c1ccco1)N1CCCc2cc(NS(=O)(=O)c3ccc(Cl)c(C(F)(F)F)c3)ccc21 in this work.
In the case of NC(=O)c1ccc(S(=O)(=O)Nc2ccc3c(c2)CCCN3C(=O)c2ccco2)cc1, the IC50 [2] is reported as > 10 µM and the IC50 [3] is reported as > 10 µM.
COc1cc(C)c(Cl)cc1S(=O)(=O)Nc1ccc2c(c1)CCCN2C(=O)c1ccco1 was tested, and the IC50 [1] was 5.02 µM, the IC50 [2] was 0.05 µM and the IC50 [3] was > 10 µM.
CCS(=O)(=O)N(c1ccc2c(c1)CCCN2C(=O)c1ccco1)S(=O)(=O)CC was tested, and the IC50 [2] was > 50 µM and the IC50 [3] was > 50 µM.
An IC50 [1] of 1.86 µM was found for C#CC1=C(SCC(=O)c2ccccc2)NC(C)=C(C(C)=O)C1c1cccs1 (configuration not stated) in this work.
CC(C)(C)c1ccc(S(=O)(=O)N(c2ccc3c(c2)CCCN3C(=O)c2ccco2)S(=O)(=O)c2ccc(C(C)(C)C)cc2)cc1 was tested, and the IC50 [2] was > 10 µM and the IC50 [3] was > 10 µM.
An IC50 [1] of 1.35 µM, an IC50 [2] of 0.1 µM and an IC50 [3] of 0.99 µM were found for COc1ccc(C)c(C)c1S(=O)(=O)Nc1ccc2c(c1)CCCN2C(=O)c1ccco1 in this work.
With COc1ccc(S(=O)(=O)N(c2ccc3c(c2)CCCN3C(=O)c2ccco2)S(=O)(=O)c2ccc(OC)cc2)cc1 the IC50 [1] was > 50 µM, the IC50 [2] was 0.28 µM and the IC50 [3] was 1.05 µM.
In the case of O=C(c1ccco1)N1CCCc2cc(N(S(=O)(=O)c3cccnc3)S(=O)(=O)c3cccnc3)ccc21, the IC50 [2] is reported as > 10 µM and the IC50 [3] is reported as > 50 µM.
An IC50 [1] of 1.12 µM, an IC50 [2] of 0.19 µM and an IC50 [3] of 2.08 µM were found for O=C(c1ccco1)N1CCCc2cc(NS(=O)(=O)c3ccc4ccccc4c3)ccc21 in this work.
An IC50 [1] of 3.43 µM, an IC50 [2] of 0.45 µM and an IC50 [3] of 1.32 µM were found for COc1ccc(C(=O)N2CCCc3cc(NS(=O)(=O)c4cc(Cl)c(C)cc4OC)ccc32)cc1OC in this work.
O=C(c1ccco1)N1CCCc2cc(N(S(=O)(=O)c3cccs3)S(=O)(=O)c3cccs3)ccc21 was tested, and the IC50 [1] was > 50 µM, the IC50 [2] was 1.05 µM and the IC50 [3] was 2.86 µM.
An IC50 [1] of 1.14 µM, an IC50 [2] of 0.17 µM and an IC50 [3] of 1.36 µM were found for COc1cc(C)c(Cl)cc1S(=O)(=O)Nc1ccc2c(c1)CCCN2C(=O)c1cccs1 in this work.
With COc1cc(C)c(C)cc1S(=O)(=O)Nc1ccc2c(c1)CCCN2C(=O)C1CCCCC1 the IC50 [1] was > 50 µM, the IC50 [2] was 4.61 µM and the IC50 [3] was > 10 µM.
With O=C(c1ccco1)N1CCCc2cc(N(S(=O)(=O)c3ccc(Br)cc3)S(=O)(=O)c3ccc(Br)cc3)ccc21 the IC50 [2] was > 10 µM and the IC50 [3] was > 25 µM.
COc1ccc(C(=O)N2CCCc3cc(NS(=O)(=O)c4cc(Cl)c(C)cc4OC)ccc32)cc1 was tested, and the IC50 [1] was > 50 µM, the IC50 [2] was 0.067 µM and the IC50 [3] was 1.42 µM.
With COc1cc(C)c(C)cc1S(=O)(=O)Nc1ccc2c(c1)CCCN2C(=O)c1ccccc1 the IC50 [1] was > 50 µM, the IC50 [2] was 0.89 µM and the IC50 [3] was 1.14 µM.
With COc1cc(C)c(Cl)cc1S(=O)(=O)Nc1ccc2c(c1)CCCN2C(=O)c1ccc(C)cc1 the IC50 [1] was > 50 µM, the IC50 [2] was 0.08 µM and the IC50 [3] was 1.11 µM.
An IC50 [1] of 3.28 µM, an IC50 [2] of 0.33 µM and an IC50 [3] of 1.95 µM were found for COc1cc(C)c(Cl)cc1S(=O)(=O)Nc1ccc2c(c1)CCCN2C(=O)c1ccc2ccccc2c1 in this work.
For O=C(c1ccco1)N1CCCc2cc(N(S(=O)(=O)c3ccc4c(c3)CCCC4)S(=O)(=O)c3ccc4c(c3)CCCC4)ccc21, the IC50 [1] was > 50 µM, the IC50 [2] was 0.7 µM and the IC50 [3] was 7.99 µM.
For CCCCS(=O)(=O)N(c1ccc2c(c1)CCCN2C(=O)c1ccco1)S(=O)(=O)CCCC, the IC50 [1] was > 50 µM, the IC50 [2] was 1.79 µM and the IC50 [3] was 2.84 µM.
An IC50 [1] of 1.92 µM, an IC50 [2] of 3.99 µM and an IC50 [3] of 3.83 µM were found for O=C(c1ccco1)N1CCCc2cc(NS(=O)(=O)c3ccccc3)ccc21 in this work.
An IC50 [1] of 2.22 µM, an IC50 [2] of 0.3 µM and an IC50 [3] of 3.33 µM were found for COc1cc(C)c(Cl)cc1S(=O)(=O)Nc1ccc2c(c1)CCCN2C(=O)c1ccc(C(F)(F)F)cc1 in this work.
In the case of COC(=O)c1ccc(S(=O)(=O)N(c2ccc3c(c2)CCCN3C(=O)c2ccco2)S(=O)(=O)c2ccc(C(=O)OC)cc2)cc1, the IC50 [2] is reported as > 50 µM and the IC50 [3] is reported as > 10 µM.
With O=C(c1ccco1)N1CCCc2cc(N(S(=O)(=O)c3cc4ccccc4s3)S(=O)(=O)c3cc4ccccc4s3)ccc21 the IC50 [1] was > 50 µM, the IC50 [2] was 0.43 µM and the IC50 [3] was 3.19 µM.
For COc1cccc(Cl)c1S(=O)(=O)Nc1ccc2c(c1)CCCN2C(=O)c1ccco1, the IC50 [2] was > 10 µM and the IC50 [3] was > 10 µM.
An IC50 [1] of 0.47 µM, an IC50 [2] of 0.18 µM and an IC50 [3] of 1.15 µM were found for CC(C)(C)c1ccc(S(=O)(=O)Nc2ccc3c(c2)CCCN3C(=O)c2ccco2)cc1 in this work.
